Source: patent US9918974B2, “Pyridone derivatives as rearranged during transfection (RET) kinase inhibitors” (GlaxoSmithKline Intellectual Property Development Limited, priority 2014, dated 2018)

Molecular target: Human RET kinase (Homo sapiens (Human), UniProt P07949, C634W)
Test: RET kinase cell-based mechanistic assay (constitutive RET kinase phosphorylation in TT cells)
Details: 2 h treatment, phospho-RET ELISA
Description: RET Kinase Cell-Based Mechanistic Assay
The potency of the compounds of the invention were tested for its ability to inhibit constitutive RET kinase phosphorylation in cell-based assay. TT cells (ATCC CRL-1803), a medullary thyroid cancer cell line with constitutively activated RET kinase, were maintained in 150 cm^2 dishes in F12 Kaighn's medium, 10% fetal bovine serum, 1× Glutamax, 1× non-essential amino acids, 1× Pen/Strep antibiotics at 37° C. in 5% carbon dioxide. 1.0E5 TT cells/well were plated in a 96-well cell culture plate and allowed to adhere overnight. […] Plates were washed 4× with 200 μL of 1×PBS; 0.05% Tween-20, 100 μL of TMB (3,3′,5,5″-tetramethylbenzidine) substrate (Cell Signaling #7004) was added, incubated for 10 minutes at 37° C., 100 μL of Stop solution (Cell Signaling #7002) was added and absorbance read on a spectrophotometer at 450 nm. […]

Sequence of Human RET kinase (P07949 29-1114 C634W): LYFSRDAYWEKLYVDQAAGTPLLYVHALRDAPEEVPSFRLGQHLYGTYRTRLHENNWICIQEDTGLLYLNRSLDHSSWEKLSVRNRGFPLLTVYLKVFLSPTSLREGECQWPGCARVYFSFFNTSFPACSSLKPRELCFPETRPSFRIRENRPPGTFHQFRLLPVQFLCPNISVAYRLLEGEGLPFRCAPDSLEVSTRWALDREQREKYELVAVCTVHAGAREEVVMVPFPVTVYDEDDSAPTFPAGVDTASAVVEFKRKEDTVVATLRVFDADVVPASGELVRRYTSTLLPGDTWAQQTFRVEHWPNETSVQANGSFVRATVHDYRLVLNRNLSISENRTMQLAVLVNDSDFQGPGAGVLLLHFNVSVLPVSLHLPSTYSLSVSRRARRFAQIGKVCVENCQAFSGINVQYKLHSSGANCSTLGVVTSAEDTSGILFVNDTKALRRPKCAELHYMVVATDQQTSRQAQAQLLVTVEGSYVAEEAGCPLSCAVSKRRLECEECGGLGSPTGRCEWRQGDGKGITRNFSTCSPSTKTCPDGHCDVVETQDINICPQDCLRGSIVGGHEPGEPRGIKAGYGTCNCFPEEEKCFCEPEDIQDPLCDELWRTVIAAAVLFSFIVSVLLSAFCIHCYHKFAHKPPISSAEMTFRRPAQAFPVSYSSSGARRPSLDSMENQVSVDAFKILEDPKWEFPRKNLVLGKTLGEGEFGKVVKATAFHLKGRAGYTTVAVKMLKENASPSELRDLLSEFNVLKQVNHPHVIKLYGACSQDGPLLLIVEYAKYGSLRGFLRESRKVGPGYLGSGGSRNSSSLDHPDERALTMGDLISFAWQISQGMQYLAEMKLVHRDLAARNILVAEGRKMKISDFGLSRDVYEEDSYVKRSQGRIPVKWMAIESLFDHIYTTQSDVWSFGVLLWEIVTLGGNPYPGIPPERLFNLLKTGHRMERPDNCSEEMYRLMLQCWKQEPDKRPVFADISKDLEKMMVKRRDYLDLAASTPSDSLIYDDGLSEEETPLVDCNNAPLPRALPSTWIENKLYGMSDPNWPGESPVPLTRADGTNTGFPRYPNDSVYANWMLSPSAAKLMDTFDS

| Structure (SMILES) | IC50 [µM] |
| --- | --- |
| CCOc1cc(=O)[nH]cc1-c1ccc(CC(=O)Nc2cc(C(=O)NCCN(C)C)cc(C(F)(F)F)c2)c(F)c1 [Example 1, N-(2-(dimethylamino)ethyl)-3-(2-(4-(4-ethoxy-6-oxo-1,6-dihydropyridin-3-yl)-2-fluorophenyl)acetamido)-5-(trifluoromethyl)benzamide] | 0.01 to 0.1 |
| CCOc1cc(=O)[nH]cc1-c1ccc(CC(=O)Nc2cc(OCCN(C)C)cc(C(F)(F)F)c2)c(F)c1 [Example 2, N-(3-(2-(dimethylamino)ethoxy)-5-(trifluoromethyl)phenyl)-2-(4-(4-ethoxy-6-oxo-1,6-dihydropyridin-3-yl)-2-fluorophenyl)acetamide] | 0.01 to 0.1 |
